Common to all, as to type: ADME, cell-based
In data set [1] the test system is A549. The data set can be described thus: Drug uptake in human A549 cells at 250 kBq after 20 mins by gamma-counting. To be noted: a549, 20 min.
The subject of data set [2] is A549. The data set can be described thus: Drug uptake in human A549 cells at 250 kBq by gamma-counting. Particulars: TDE = time-dependent effect; call rule not given here.
For data set [3], the system named is A549. Briefly: Drug uptake in human A549 cells at 250 kBq after 30 mins by gamma-counting. Particulars: a549, 0.5 h.
Data set [4] relates to A549. Briefly: Drug uptake in human A549 cells at 250 kBq after 30 mins by gamma-counting in presence of L-glutamic acid. Particulars: a549, 0.5 h.
For data set [5], the system named is HT-29. The data set can be described thus: Drug uptake in human HT-29 cells at 250 kBq after 20 mins by gamma-counting. Particulars: ht-29, 20 min.
The subject of data set [6] is HT-29. The data set can be described thus: Drug uptake in human HT-29 cells at 250 kBq after 20 mins by gamma-counting in presence of L-glutamic acid. Particulars: ht-29, 20 min.
Data set [7] concerns A549. Briefly: Drug uptake in human A549 cells at 250 kBq after 30 mins by gamma-counting in presence of D-glucose. To be noted: a549, 0.5 h.
For data set [8], the system named is HT-29. The data set can be described thus: Drug uptake in human HT-29 cells at 250 kBq after 20 mins by gamma-counting in presence of D-glucose. To be noted: ht-29, 20 min.

The structures appear in SMILES notation.

`N[C@@H](CC([18F])C(=O)O)C(=O)O` (stereo not given in full): the Drug uptake is on record as 9.3% in the data set with A549 [1]; “tde” with A549 [2]; 12% in the data set on A549 [3]; “Not Active” in the data set on A549 [4]; 4% in the data set with HT-29 [5]; “Not Active” in the data set with HT-29 [6].

On to `N[C@@H](C[C@@H](F)C(=O)O)C(=O)O`, for which the Drug uptake entry with A549 [3] is reported as “Active”.

Turning to `OC[C@H]1O[C@@H](O)[C@H]([18F])[C@@H](O)[C@@H]1O` [FLUDEOXYGLUCOSE-F18], the Drug uptake result in the data set on A549 [7] and with HT-29 [8] was “Not Active” each time.

Take `N[C@@H](C[C@H](F)C(=O)O)C(=O)O`: the Drug uptake entry in the data set on A549 [3] is listed as “Active”.

Values taken from ChEMBL document CHEMBL1649071, “4-[18F]fluoroglutamic acid (BAY 85-8050), a new amino acid radiotracer for PET imaging of tumors: synthesis and in vitro characterization” (J Med Chem, 2011).
